Measured values from patent US20230000081A1, “SYNERGISTIC PESTICIDAL COMPOSITIONS FOR DELIVERY OF PESTICIDAL ACTIVE INGREDIENTS AND METHODS THEREFOR” (0903608 B.C. Ltd., priority 2018, published 2023).
“And” between values parts separate entries of the source, which are not always exact repeats. Equal entries are not always repeated.

Assays:
Experiment in all cases: Synergistic Growth Inhibition Assay (MIC, FIC index; 96-well microtiter plate, resazurin dye)
Format in all cases: cell-based
[1] = test system: Alternaria solani; conditions: 7 days incubation; for MIC (A): Compound A alone
Protocol: In some embodiments, the synergistic action between the pesticidal active ingredient, and the at least one C4-C10 (or alternatively C11 or C12) saturated or unsaturated aliphatic acid components of the pesticidal compositions according to embodiments of the present disclosure was tested using a Synergistic Growth Inhibition Assay, which is derived from and related to a checkerboard assay as is known in the art for testing of combinations of antimicrobial agents. In the Synergistic Growth Inhibition Assay used in accordance with some embodiments of the present disclosure, multiple dilutions of combinations of pesticidal active ingredient and at least one C4-C10 saturated or unsaturated aliphatic acid agents are tested in individual cells for inhibitory activity against a target pest or pathogenic organism. In one such embodiment, the combinations of pesticidal active ingredient and C4-C10 (or alternatively C11 or C12) saturated or unsaturated aliphatic acid agents may preferably be tested in decreasing concentrations. In a further such embodiment, the combinations of pesticidal active ingredient and C4-C10 (or alternatively C11 or C12) saturated or unsaturated aliphatic acid agents may be tested in increasing concentrations. These multiple combinations of the pesticidal active ingredient and at least one C4-C10 (or alternatively C11 or C12) saturated or unsaturated aliphatic acid agents may be prepared in 96-well microtiter plates. […] Thus, each well of the microtiter plate is a unique combination of the two agents, at which inhibitory efficacy of the combination against the target pest or pathogen can be determined.
In one embodiment according to the present disclosure, for each row of microtiter cells in the Synergistic Growth Inhibition Assay, the FIC index is calculated from the lowest concentration of the pesticidal active ingredient and one or more C4-C10 saturated or unsaturated aliphatic acid agents necessary to inhibit growth of a target pest or pathogen. […] The FIC index is calculated for each row as follows: […]

[2] = test system: Fusarium oxysporum; conditions: for MIC (A): Compound A alone
Protocol: (§1) In some embodiments, the synergistic action between the pesticidal active ingredient, and the at least one C4-C10 (or alternatively C11 or C12) saturated or unsaturated aliphatic acid components of the pesticidal compositions according to embodiments of the present disclosure was tested using a Synergistic Growth Inhibition Assay, which is derived from and related to a checkerboard assay as is known in the art for testing of combinations of antimicrobial agents. In the Synergistic Growth Inhibition Assay used in accordance with some embodiments of the present disclosure, multiple dilutions of combinations of pesticidal active ingredient and at least one C4-C10 saturated or unsaturated aliphatic acid agents are tested in individual cells for inhibitory activity against a target pest or pathogenic organism. In one such embodiment, the combinations of pesticidal active ingredient and C4-C10 (or alternatively C11 or C12) saturated or unsaturated aliphatic acid agents may preferably be tested in decreasing concentrations. In a further such embodiment, the combinations of pesticidal active ingredient and C4-C10 (or alternatively C11 or C12) saturated or unsaturated aliphatic acid agents may be tested in increasing concentrations. These multiple combinations of the pesticidal active ingredient and at least one C4-C10 (or alternatively C11 or C12) saturated or unsaturated aliphatic acid agents may be prepared in 96-well microtiter plates. In one such embodiment, the Synergistic Growth Inhibition Assay then comprises rows which each contain progressively decreasing concentrations of the pesticidal active ingredient and one or more C4-C10 (or alternatively C11 or C12) saturated or unsaturated aliphatic acid agents to test for the MIC of the agents in combination at which growth of the target pest or pathogen is inhibited. Thus, each well of the microtiter plate is a unique combination of the two agents, at which inhibitory efficacy of the combination against the target pest or pathogen can be determined.
(§2) In one embodiment according to the present disclosure, for each row of microtiter cells in the Synergistic Growth Inhibition Assay, the FIC index is calculated from the lowest concentration of the pesticidal active ingredient and one or more C4-C10 saturated or unsaturated aliphatic acid agents necessary to inhibit growth of a target pest or pathogen. The FIC of each component is derived by dividing the concentration of the agent present in that well of the microtiter plate by the minimal inhibitory concentration (MIC) needed of that agent alone to inhibit growth of the target pest or pathogen. The FIC index is then the sum of these values for both agents in that well of the microtiter plate. The FIC index is calculated for each row as follows:
(§3) FICindex=MICa/MICA+MICb/MICB
(§4) Fractional inhibitory concentration indices may then used as measure of synergy. […] When the FIC index is equal to 1, the combination is additive.
Then, serial dilutions of these initial compositions in successive wells in the row of the microtiter plate were used to assay the pesticidal composition under the same conditions to determine the concentration of the composition combining the two agents corresponding to the microtiter well in which growth inhibition of the target pest or organism ceases. […]

[3] = test system: Botrytis cinerea; conditions: for MIC (A): Compound A alone
Protocol: as §1, §2, §3, §4
(§5) Then, serial dilutions of these initial compositions in successive wells in the row of the microtiter plate were used to assay the pesticidal composition under the same conditions to determine the concentration of the composition combining the two agents corresponding to the microtiter well in which growth inhibition of the target pest or organism ceases.
Similarly to as described above, Resazurin was used as an indicator of growth or inhibition of growth of Botrytis cinerea in the exemplary Synergistic Growth Inhibition Assay. In addition to the color change of the resazurin, an optical or visual examination of the microtiter well may also be made to additionally determine the presence of growth or inhibition of growth of the Botrytis cinerea.

[4] = test system: Sclerotinia sclerotiorum; conditions: for MIC (A): Compound A alone
Protocol: as §1, §2, §3, §4, §5
Similarly to as described above, Resazurin was used as an indicator of growth or inhibition of growth of Sclerotinia sclerotiorum in the exemplary Synergistic Growth Inhibition Assay. […]

[5] = Compound B alone, 48 hours incubation
[6] = Compound B (aliphatic acid) alone, Botrytis cinerea, 48 hours incubation
[7] = Fusarium oxysporum, incubation period of 48 hours
[8] = Sclerotinia sclerotiorum, 7 days incubation
[9] = Botrytis cinerea, 48 hours incubation

Molecule: CCC(O)C(=O)O (stereo not drawn) [2-Hydroxybutyric acid]
- MIC (B) ([1]; Compound B (aliphatic acid) alone): 2500 µg/mL

Molecule: CC(O)CC(=O)O (stereo not drawn) [3-Hydroxybutyric acid, 3-hydroxybutyric acid]
- MIC (B) [2, 5]: 10000 µg/mL
- MIC (B) [3, 6]: 10000 µg/mL

Molecule: CCCCCCCC(O)CC(=O)O (stereo not drawn) [3-Hydroxydecanoic acid, 3-hydroxydecanoic acid]
- MIC (B) [3, 6]: 125 µg/mL

Molecule: CCCC(O)CC(=O)O (stereo not drawn) [3-Hydroxyhexanoic acid, 3-hydroxyhexanoic acid]
- MIC (B) [3, 6]: 2500 µg/mL

Molecule: O=C(O)CCCCCCCO [8-Hydroxyoctanoic acid]
- MIC (B) [3, 6]: 2500 µg/mL

Molecule: O=C(O)CCCCCCCCCCCO [12-Hydroxydodecanoic acid]
- MIC (B) [3, 6]: 100 µg/mL and 50 µg/mL

Molecule: CCCCCCCC/C=C\CCCCCCCC(=O)O [(9Z)-octadecenoic acid]
- MIC (B) ([3]; Compound B alone, Botrytis cinerea, incubation period of 48 hours): 5000 µg/mL
- MIC (B) ([4]; Compound B alone, Sclerotinia sclerotiorum, 7 days incubation): 5000 µg/mL

Molecule: CO/C=C(/C(=O)OC)c1ccccc1Oc1cc(Oc2ccccc2C#N)ncn1 [Azoxystrobin, azoxystrobin, reference compound]
- MIC (A) ([2]; Fusarium oxysporum, 48 hours incubation): 150 µg/mL
- MIC (A) [2, 7]: 150 µg/mL
- MIC (A) ([3]; Botrytis cinerea, incubation period of 2 days): 150 µg/mL
- MIC (A) ([3]; Botrytis cinerea, incubation period of 48 hours): 75 µg/mL and 150 µg/mL
- MIC (A) ([4]; 7 days incubation): 75 µg/mL
- MIC (A) [4, 8]: 150 µg/mL
- MIC (A) ([4]; Sclerotinia sclerotiorum, incubation period of 7 days): 150 µg/mL

Molecule: N#Cc1c[nH]cc1-c1cccc2c1OC(F)(F)O2 [Fludioxonil, fludioxonil]
- MIC (A) ([2]; 24 hour incubation): 0.24063 µg/mL

Molecule: CCCCCC(=O)O [Hexanoic acid]
- MIC (B) [3, 5]: 156.2 µg/mL

Molecule: Cc1cc(C(F)(F)F)nn1CC(=O)N1CCC(c2nc(C3=NOC(c4c(F)cccc4F)C3)cs2)CC1 (stereo not drawn) [Oxathiapiprolin]
- MIC (A) [3, 9]: 500 µg/mL

Molecule: CO/C=C(/C(=O)OC)c1ccccc1COc1cccc(C(F)(F)F)n1 [Picoxystrobin]
- MIC (A) [3, 9]: 250 µg/mL
- MIC (A) [4, 8]: 500 µg/mL
- MIC (A) [1]: 500 µg/mL

Molecule: CC(C)(C)C(O)(CCc1ccc(Cl)cc1)Cn1cncn1 (stereo not drawn) [Tebuconazole]
- MIC (A) [2, 7]: 225 µg/mL

Molecule: Mancozeb
- MIC (A) [1]: 500 µg/mL
